From patent EP1509519B1, “CRYSTALLINE FLUOROQUINOLONE ARGININE SALT FORM” (Wockhardt Limited, priority 2002, dated 2003)
Several values for one entry are separate records, joined by “and”; a condition that tells them apart may be missing. Equal values may be shown once.

Columns and labels:
bioavailability = test: bioavailability; parameters: species or system mammals; details: in vivo
[1] = mean mass diameter determination (laser diffraction); details: for Mean mass diameter: individual samples made by the procedure of example 1, laser diffraction
[2] = bulk density determination; format: physicochemical
Text: Untapped density = 25 g/untapped volume. […] Tapped density = 25 g/Tapped volume.

[3] = water

Compound: C[C@H]1CCc2c(N3CCC(O)CC3)c(F)cc3c(=O)c(C(=O)O)cn1c23
- bioavailability (bioavailability): favorable bioavailability
- Mean mass diameter ([1]; hydrate): less than or equal to 40 µm
- Mean mass diameter ([1]; listed as Example 1, hydrate): 32.92 µm and 24.22 µm and 34.51 µm and 39.07 µm
- Mean mass diameter, mean value ([1]; mean of four samples): 32.68 µm
- Bulk density (tapped) ([2]; 25 gm/tapped volume, tapped 150 times): 0.64 g/mL
- Bulk density (untapped) ([2]; 25 gm/untapped volume): 0.57 g/mL

Compound: CC1CCc2c(N3CCC(O)CC3)c(F)cc3c(=O)c(C(=O)O)cn1c23.N=C(N)NCCCC(N)C(=O)O (racemic) [R, S-9-fluoro-6,7-dihydro-8-(4-hydroxypiperidin-1-yl)-5-methyl-1-oxo-1H,5H-benzo [i,j]-quinolizine-2-carboxylic acid DL-arginine salt]
- antimicrobial activity (antimicrobial activity): have antimicrobial activity

Compound: CC1CCc2c(N3CCC(O)CC3)c(F)cc3c(=O)c(C(=O)O)cn1c23.N=C(N)NCCC[C@H](N)C(=O)O (racemic) [RS-(±)-9-fluoro-6,7-dihydro-8-(4-hydroxypiperidin-1-yl)-5-methyl-1-oxo-1H,5H-benzo[i,j]quinolizine-2-carboxylic acid L-arginine salt]
- antimicrobial activity (antimicrobial activity): have antimicrobial activity

Compound: CC1CCc2c(N3CCC(O)CC3)c(F)cc3c(=O)c(C(=O)O)cn1c23.N=C(N)NCCC[C@@H](N)C(=O)O (racemic) [RS-(±)-9-fluoro-6,7-dihydro-8-(4-hydroxypiuenidin-1-yl)-5-methyl-1-oxo-1H,5H-benzo[i,j]quinolizine-2-carboxylic acid D-argirrine salt]
- antimicrobial activity (antimicrobial activity): have antimicrobial activity

Compound: C[C@@H]1CCc2c(N3CCC(O)CC3)c(F)cc3c(=O)c(C(=O)O)cn1c23.N=C(N)NCCC[C@H](N)C(=O)O [R-(+)-9-fluoro-6,7-dihydro-8-(4-hydroxypipe-1-yl)-5-1-oxo-1H,5H-benzo[i,j]quinolizine-2-carboxylic acid L-arginine salt]
- antimicrobial activity (antimicrobial activity): have antimicrobial activity

Compound: C[C@@H]1CCc2c(N3CCC(O)CC3)c(F)cc3c(=O)c(C(=O)O)cn1c23.N=C(N)NCCC[C@@H](N)C(=O)O [R-(+)-9-fluoro-6,7-dihydro-8-(4-hydroxypiperidin-1-yl)-5-methyl-1-oxo-1H,5H-benzo[i,j]quinolizine-2-carboxylic acid D-arginine salt]
- antimicrobial activity (antimicrobial activity): have antimicrobial activity

Compound: C[C@H]1CCc2c(N3CCC(O)CC3)c(F)cc3c(=O)c(C(=O)O)cn1c23 [reference compound]
- antimicrobial activity compared with the R-(+)- and RS-(±)-acids (antimicrobial activity): more potent antimicrobial activity
- aqueous solubility [3]: 800 to 2000 µg/mL

Compound: R-(+)-9-fluoro-6,7-dihydro-8-(4-hydroxypiperidin-1-yl)-5-methyl-1-oxo-1H,5H-benzo [ij]-quinolizine-2-carboxylic acid DL-arginine salt
- antimicrobial activity (antimicrobial activity): have antimicrobial activity

Compound: S-(-)-9-fluoro-6,7-dihydro-8-(4-hydroxypiperidin-1-yl)-5-methyl-1-oxo-1H,5H-benzo [ij]-quinolizine-2-carboxylic acid DL-arginine salt
- antimicrobial activity (antimicrobial activity): have antimicrobial activity
